# Tested on: Rattus norvegicus
# Conditions: short-term, duration: 28 days, oral, gavage, Sprague-Dawley
smiles,measurement,setting,value
O=C(O)C(F)(F)C(F)(F)C(F)(F)C(F)(F)C(F)(F)C(F)(F)C(F)(F)C(F)(F)C(F)(F)F [Perfluorodecanoic acid],LOEL,"F, Clinical chemistry_Alanine aminotransferase",1.25 mg/kg-day
same,NOEL,"F, Clinical chemistry_Albumin",2.5 mg/kg-day
same,LOEL,"F, Clinical chemistry_Albumin/globulin ratio",0.312 mg/kg-day
same,LOEL,"F, Clinical chemistry_Alkaline phosphatase",0.312 mg/kg-day
same,LOEL,"F, Clinical chemistry_Aspartate aminotransferase",1.25 mg/kg-day
same,LOEL,"F, Clinical chemistry_Cholesterol",2.5 mg/kg-day
same,LOEL,"F, Clinical chemistry_Creatinine kinase",1.25 mg/kg-day
same,LOEL,"F, Clinical chemistry_Direct bilirubin",1.25 mg/kg-day
same,LOEL,"F, Clinical chemistry_Free thyroxine",1.25 mg/kg-day
same,LOEL,"F, Clinical chemistry_Globulin",0.312 mg/kg-day
same,LOEL,"F, Clinical chemistry_Indirect bilirubin",2.5 mg/kg-day
same,LOEL,"F, Clinical chemistry_Sorbitol dehydrogenase",2.5 mg/kg-day
same,LOEL,"F, Clinical chemistry_Testosterone",0.312 mg/kg-day
same,NOEL,"F, Clinical chemistry_Thyroid stimulating hormone",2.5 mg/kg-day
same,LOEL,"F, Clinical chemistry_Total bile acids",1.25 mg/kg-day
same,LOEL,"F, Clinical chemistry_Total bilirubin",1.25 mg/kg-day
same,NOEL,"F, Clinical chemistry_Total protein",2.5 mg/kg-day
same,NOEL,"F, Clinical chemistry_Total thyroxine",2.5 mg/kg-day
same,LOEL,"F, Clinical chemistry_Total triiodothyronine",1.25 mg/kg-day
same,NOEL,"F, Clinical chemistry_Triglycerides",2.5 mg/kg-day
same,LOEL,"F, Gene expression_Acox1",0.156 mg/kg-day
same,LOEL,"F, Gene expression_Cyp2b1",0.156 mg/kg-day
same,LOEL,"F, Gene expression_Cyp2b2",0.156 mg/kg-day
same,LOEL,"F, Gene expression_Cyp4a1",0.625 mg/kg-day
same,LOEL,"F, Hematology_Erythrocytes",1.25 mg/kg-day
same,LOEL,"F, Hematology_Hematocrit",1.25 mg/kg-day
same,LOEL,"F, Hematology_Hemoglobin",1.25 mg/kg-day
same,LOEL,"F, Hematology_Mean corpuscular hemoglobin concentration",2.5 mg/kg-day
same,LOEL,"F, Hematology_Mean corpuscular volume",1.25 mg/kg-day
same,LOEL,"F, Hematology_Platelets",2.5 mg/kg-day
same,LOEL,"F, Hematology_Reticulocytes",1.25 mg/kg-day
same,LOEL,"F, Nonneoplastic effects_Bone marrow - Hypocellularity",2.5 mg/kg-day
same,NOEL,"F, Nonneoplastic effects_Forestomach - Epithelium, hyperplasia",2.5 mg/kg-day
same,NOEL,"F, Nonneoplastic effects_Forestomach - Inflammation, chronic active",2.5 mg/kg-day
same,NOEL,"F, Nonneoplastic effects_Kidney - Nephropathy, chronic progressive",2.5 mg/kg-day
same,LOEL,"F, Nonneoplastic effects_Liver - Hepatocyte, Necrosis",2.5 mg/kg-day
same,LOEL,"F, Nonneoplastic effects_Liver - Hepatocyte, cytoplasmic alteration",0.625 mg/kg-day
same,LOEL,"F, Nonneoplastic effects_Liver - Hepatocyte, hypertrophy",1.25 mg/kg-day
same,LOEL,"F, Nonneoplastic effects_Liver - Hepatocyte, vacuolization cytoplasmic",2.5 mg/kg-day
same,NOEL,"F, Nonneoplastic effects_Lymph nodes - Mandibular, atrophy",2.5 mg/kg-day
same,NOEL,"F, Nonneoplastic effects_Lymph nodes - Mesenteric, atrophy",2.5 mg/kg-day
same,NOEL,"F, Nonneoplastic effects_Nose - Olfactory epithelium, degeneration",2.5 mg/kg-day
same,NOEL,"F, Nonneoplastic effects_Nose - Olfactory epithelium, hyperplasia",2.5 mg/kg-day
same,NOEL,"F, Nonneoplastic effects_Nose - Olfactory epithelium, inflammation, suppurative",2.5 mg/kg-day
same,NOEL,"F, Nonneoplastic effects_Nose - Respiratory epithelium, hyperplasia",2.5 mg/kg-day
same,NOEL,"F, Nonneoplastic effects_Nose - Respiratory epithelium, inflammation, chronic active",2.5 mg/kg-day
same,NOEL,"F, Nonneoplastic effects_Spleen - Atrophy",2.5 mg/kg-day
same,NOEL,"F, Nonneoplastic effects_Spleen - Extramedullary hematopoiesis, increased",2.5 mg/kg-day
same,LOEL,"F, Nonneoplastic effects_Thymus - Atrophy",2.5 mg/kg-day
same,NOEL,"F, Nonneoplastic effects_Thymus - Lymphocyte, apoptosis",2.5 mg/kg-day
same,NOEL,"F, Nonneoplastic effects_Thyroid gland - Follicular cell hypertrophy",2.5 mg/kg-day
same,LOEL,"F, Organ weights_Liver - Absolute",0.156 mg/kg-day
same,LOEL,"F, Organ weights_Liver - Relative",0.156 mg/kg-day
same,LOEL,"F, Organ weights_R. adrenal gland - Absolute",2.5 mg/kg-day
same,NOEL,"F, Organ weights_R. adrenal gland - Relative",2.5 mg/kg-day
same,LOEL,"F, Organ weights_R. kidney - Absolute",2.5 mg/kg-day
same,LOEL,"F, Organ weights_R. kidney - Relative",0.625 mg/kg-day
same,LOEL,"F, Organ weights_Spleen - Absolute",1.25 mg/kg-day
same,LOEL,"F, Organ weights_Spleen - Relative",0.625 mg/kg-day
same,LOEL,"F, Organ weights_Thymus - Absolute",2.5 mg/kg-day
same,LOEL,"F, Organ weights_Thymus - Relative",2.5 mg/kg-day
same,LOEL,"F, Organ weights_Thyroid gland - Absolute",0.312 mg/kg-day
same,LOEL,"F, Organ weights_Thyroid gland - Relative",0.312 mg/kg-day
same,LOEL,"F, Reproductive toxicity_Altered estrous cyclicity",1.25 mg/kg-day
same,NOEL,"F, Survival rates",2.5 mg/kg-day
same,LOEL,"F, body weight",1.25 mg/kg-day
same,LOEL,"M, Clinical chemistry_Alanine aminotransferase",0.312 mg/kg-day
same,LOEL,"M, Clinical chemistry_Albumin",1.25 mg/kg-day
same,LOEL,"M, Clinical chemistry_Albumin/globulin ratio",0.156 mg/kg-day
same,LOEL,"M, Clinical chemistry_Alkaline phosphatase",0.312 mg/kg-day

# From EPA's ToxValDB 9.5
